Test results taken from patent US20200316159A1, “SUSTAINED RELEASE COMPOSITIONS OF KAPPA-OPIOID RECEPTOR AGONIST” (JT PHARMACEUTICALS, INC., priority 2016, published 2020).
“Also recorded” adds a separate entry of the source.

Tests used:
[1] = system: peripheral pain (acetic acid-induced writhing); experiment: Acetic acid-induced writhing model (Example 1); assay type: in vivo, rat (male Sprague-Dawley)
Method: Acetic Acid-Induced Writhing Model.
This protocol is a well-established model of peripheral pain. Following oral or i.v. administration of compound, rats are rested for 20 min before i.p. injection with 2 ml/kg of 3% acetic acid. Animals are then rested an additional 10 min before being placed in a 10×10 inch chamber. A video of the rats is then recorded for next 20 min. The video is subsequently blindly scored by an investigator who examines each rat every 20 sec for the entire 20 min (60 individual observations). At each observation rats are scored on whether they are writhing or not. Writhing is defined as a constriction of the abdominal area, often with extension of the hind legs. At the end of the experiment the percent of the time the animal was writhing was calculated. The dose-response curves and EC50 values were generated using GraphPad Prism®.
As an initial biological screen the potential for oral availability of the 18 peptides in our library were evaluated in a well-established model of peripheral pain, the acetic acid-induced writhing assay. Rats were administered the various compounds by oral gavage at a screening dose of 20 mg/kg 20 min before i.p. injection with 2 ml/kg of 3% acetic acid. 10 min later animals were assessed for writhing as indicated in the methods section. […] Thus, several of the Arg modifications can impart CR665 with the ability to cross the gut barrier. Compounds 3, 7, 9, 11 and 17 were selected for further analysis.

kappa opioid receptor = kappa opioid receptor (Homo sapiens, UniProt P41145); experiment: Opioid receptor activation assay, DiscoveRx PathHunter Beta-Arrestin, kappa; assay type: cell-based
Chain of kappa opioid receptor (P41145 whole entry): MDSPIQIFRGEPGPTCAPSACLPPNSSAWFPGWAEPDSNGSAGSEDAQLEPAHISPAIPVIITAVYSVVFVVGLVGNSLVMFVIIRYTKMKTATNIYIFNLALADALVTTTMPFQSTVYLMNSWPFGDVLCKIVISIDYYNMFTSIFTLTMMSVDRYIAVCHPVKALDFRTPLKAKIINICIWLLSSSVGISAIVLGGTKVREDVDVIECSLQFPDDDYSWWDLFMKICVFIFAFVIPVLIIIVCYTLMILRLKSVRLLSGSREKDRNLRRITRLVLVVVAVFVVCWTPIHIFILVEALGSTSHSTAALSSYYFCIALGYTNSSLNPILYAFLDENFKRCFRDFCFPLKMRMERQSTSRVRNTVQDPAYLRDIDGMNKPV
Excerpt: Opioid Receptor Activation Assay.
PathHunter™ Beta-Arrestin GPCR Functional Profiling and Screening cell lines that express the individual opioid receptors were obtained from DiscoveRx (Fremont, Calif.). These cells express the kappa (or mu or delta) opioid receptor fused to a proprietary β-galactosidase enzyme fragment and the […]-arrestin gene fused to an enzyme acceptor (the remaining fragment of β-galactosidase). Upon activation of the receptor, β-arrestin is recruited to the GPCR and the β-galactosidase is activated through enzyme complementation. Cells were grown using standard cell culture techniques and then plated at 30,000 cells/well in 90 μl in a 96 well white, clear bottom plate and incubated overnight. Dilutions were prepared in dilution buffer (HBBS, 20 mMHepes, 0.1% BSA) and 10 μl added per well. Plates were then incubated for 90 min at 37° C. in a water-saturated atmosphere. Plates were then allowed to come to room temp and DiscoveRx's proprietary developing agent added as recommended by the manufacturer. This agent contains a detergent, 6-O-β-galactopyranosyl-luciferen and luciferase. Plates were then incubated for 1 hr at room temperature before being read on a luminometer. Antagonist studies were performed in an identical manner except after the overnight incubation 10 μl media was removed and replaced with drug or naloxone at the indicated concentration. […] To calculate % maximal luminescence, background was subtracted from the experimental values and this was divided by maximal luminescence and multiplied by 100.
To confirm this, and to determine their relative activities, we assessed their efficiency using PathHunter™ Beta-Arrestin GPCR Functional Profiling and Screening cell lines from DiscoveRx (Fremont, Calif.) as described in the Materials and Methods section.

[2] = system: rewarding properties (compartment preference); experiment: Conditioned place preference; assay type: in vivo, rat; conditions: 20 mg/kg p.o., alternate treatment over eight days; listed as JT09
Method: Conditioned Place Preference.
To test whether JT09 was able to condition appetitive behaviors, we used a conditioned place procedure. On day one, rats were habituated to a three-compartment apparatus for 10 min. One compartment was black with a grid floor and the other white with a rod floor. A smaller center compartment was gray with a solid floor. The amount of time spent in each compartment was recorded. The side in which the rats spent the least amount of time on habituation day was paired with JT09, in that rats receive the compound via oral gavage immediately before compartment placement. On alternating days, rats were treated with saline and confined in the opposite compartment. Rats were confined to each compartment for 25 minutes. Test rats were orally gavaged with saline and given access to the entire apparatus for 10 minutes. The amount of time spent in each compartment was recorded.

[3] = system: dysphoria (time spent immobile); experiment: Forced swim assay; assay type: in vivo, rat
Method: The most common reason for discontinuing development of kappa agonists is the induction of dysphoria, which is mediated through CNS kappa receptors. To test for this side effect, we used an established model: the repeated forced swim assay. Rats were placed in a container with 30° C. water without an escape avenue. Time spent immobile during the last 4 min of each trial was recorded. Immobility was defined by a posture in which the forelimbs were motionless in front of the body, hind legs display limited motion, and the tail is directed outward. On day one, rats were placed in the water for 15 min. On the following day, placements consisted of four trials lasting 6 min each, separated by 10 mins. Salvorin A (1 mg/kg, i.p.) or JT09 (20 mg/kg, p.o.) were administered immediately before the first placement. Time spent immobile is a diagnostic of dysphoria and typically increases with each trial. Salvinorin A (a centrally available kappa agonist) was used as a positive control due to its known […] effects such as dysphoria.

[4] = system: sedation (distance traveled); experiment: Locomotor open field test
Method: Locomotor Open Field Test.
Sedation and a loss of muscle coordination are common CNS-mediated side effects of opioids. To assess the sedative effects of JT09, rats were given JT09 (20 mg/kg, p.o.) or morphine (10 mg/kg, i.p.) 20 min before placement in an automated (68 l×21 w×21 h cm) activity chambers for a 30 min test. Morphine was used as a comparison group due to its well-known sedative effects.

[5] = Maximum tolerated dose determination; assay type: in vivo, rat; conditions: p.o., six rats per dose level, observed 4 days
Method: Maximum Tolerated Dose Determination.
In order to determine the maximum dose of JT09 that can be tolerated, its dose level was increased until the maximum tolerated dose (MTD) was identified or, if MTD dose was not reached, the maximum-administered dose (MAD). […] Six rats were included at each dose level (50, 70, and 90 mg/kg, p.o.). The animals were observed twice daily; body weights and detailed clinical observations for behavioral toxicity (porphyrin staining, changes in activity levels, changes in grooming habits, convulsions, catalepsy, muscular rigidity, and excessive vocalization) were made daily for 4 days after dosing at each level. Doses were chosen based on the compound's ED50 for analgesic potency.

[6] = Multiple dose study (14 days); assay type: in vivo, rat; conditions: 30 mg/kg oral daily for 14 days
Excerpt: Tolerance to the analgesic effects of the lead compounds was be assessed using the acetic acid-induced writhing assay (described above). Daily clinical observations for behavioral toxicity (described above) were made during the course of the experiment and body weight and food consumption recorded on study days 3, 5, 7, 9, 11 and 13. On day 15, animals were sacrificed in their home cages by carbon dioxide inhalation from a compressed gas tank. A gross necroscopic analysis was immediately performed following euthanasia.

CCCC[C@@H](NC(=O)[C@@H](Cc1ccccc1)NC(=O)[C@H](N)Cc1ccccc1)C(=O)N[C@H](CCCCN(C)C)C(=O)NCc1ccncc1 [Compound 9]
EC50, i.v. dose response in writhing assay ([1]; i.v.): 0.032 mg/kg
EC50, oral dose-response in acetic acid writhing model ([1]; oral): 4.7 mg/kg
EC50, activation of kappa opioid receptor (kappa opioid receptor; PathHunter Beta-Arrestin): low nM range
EC50 (kappa opioid receptor; PathHunter Beta-Arrestin, 3-6 repeats, read-out: 95% confidence levels of EC50, activation of kappa receptors): 15.3 to 54.5 nM
agonist selectivity for kappa over both mu- and delta-opioid receptors (kappa opioid receptor; minimal estimate): > 33,400
conditioned place preference for drug-paired compartment over saline [2]: did not develop a preference; also recorded: had no effect on compartment placement
immobility time in forced swim versus saline ([3]; 20 mg/kg p.o., listed as JT09): statistically indistinguishable; also recorded: did not induce more than a baseline time of immobility
immobility time in forced swim relative to salvinorin A ([3]; JT09 20 mg/kg p.o. versus salvinorin A 1 mg/kg i.p., all trials): lower amounts of time spent immobile
locomotor activity (distance traveled) versus saline ([4]; 20 mg/kg p.o., 30 min test): statistically indistinguishable
locomotor activity relative to morphine ([4]; JT09 20 mg/kg p.o. versus morphine 10 mg/kg i.p., time bins 1, 2 and 5): higher locomotor activity
sedation in locomotor test ([4]; JT09 20 mg/kg p.o., morphine 10 mg/kg i.p.): showed no sedation
maximum administered dose (MAD) without mortality, loss of more than 10% body weight or overt signs of toxicity [5]: 90 mg/kg
tolerance (negative CNS-mediated effects associated with morphine) [6]: does not promote
gross necropsy: heart, stomach, intestines, liver, spleen, pancreas, kidneys, adrenal glands, skeletal muscle, bone, reproductive organs, brain ([6]; six rats): grossly normal
gross necropsy: lungs ([6]; attributed to CO2 euthanasia hemorrhage): slight grey discoloration
